# Results as given in patent US12649727B2, “EFGR inhibitor, preparation method therefor and application thereof” (Abbisko Therapeutics Co., Ltd, priority 2020, dated 2026).
# Legend:
# Format in all cases: cell-based
# [1] = molecular target: Ba/F3 EGFR-V769_D770insASV (Homo sapiens, UniProt P00533, DUP767-769, cells depend on it); test: Proliferation experiment of Ba/F3 cell line, EGFR-V769_D770insASV (CellTiter-Glo); details: cultured for 72 hrs with compound, CTG analysis, read-out: Ba/F3 EGFR-V769_D770insASV IC50
# Sequence of Ba/F3 EGFR-V769_D770insASV (P00533 with tags, fused parts or gaps DUP767-769): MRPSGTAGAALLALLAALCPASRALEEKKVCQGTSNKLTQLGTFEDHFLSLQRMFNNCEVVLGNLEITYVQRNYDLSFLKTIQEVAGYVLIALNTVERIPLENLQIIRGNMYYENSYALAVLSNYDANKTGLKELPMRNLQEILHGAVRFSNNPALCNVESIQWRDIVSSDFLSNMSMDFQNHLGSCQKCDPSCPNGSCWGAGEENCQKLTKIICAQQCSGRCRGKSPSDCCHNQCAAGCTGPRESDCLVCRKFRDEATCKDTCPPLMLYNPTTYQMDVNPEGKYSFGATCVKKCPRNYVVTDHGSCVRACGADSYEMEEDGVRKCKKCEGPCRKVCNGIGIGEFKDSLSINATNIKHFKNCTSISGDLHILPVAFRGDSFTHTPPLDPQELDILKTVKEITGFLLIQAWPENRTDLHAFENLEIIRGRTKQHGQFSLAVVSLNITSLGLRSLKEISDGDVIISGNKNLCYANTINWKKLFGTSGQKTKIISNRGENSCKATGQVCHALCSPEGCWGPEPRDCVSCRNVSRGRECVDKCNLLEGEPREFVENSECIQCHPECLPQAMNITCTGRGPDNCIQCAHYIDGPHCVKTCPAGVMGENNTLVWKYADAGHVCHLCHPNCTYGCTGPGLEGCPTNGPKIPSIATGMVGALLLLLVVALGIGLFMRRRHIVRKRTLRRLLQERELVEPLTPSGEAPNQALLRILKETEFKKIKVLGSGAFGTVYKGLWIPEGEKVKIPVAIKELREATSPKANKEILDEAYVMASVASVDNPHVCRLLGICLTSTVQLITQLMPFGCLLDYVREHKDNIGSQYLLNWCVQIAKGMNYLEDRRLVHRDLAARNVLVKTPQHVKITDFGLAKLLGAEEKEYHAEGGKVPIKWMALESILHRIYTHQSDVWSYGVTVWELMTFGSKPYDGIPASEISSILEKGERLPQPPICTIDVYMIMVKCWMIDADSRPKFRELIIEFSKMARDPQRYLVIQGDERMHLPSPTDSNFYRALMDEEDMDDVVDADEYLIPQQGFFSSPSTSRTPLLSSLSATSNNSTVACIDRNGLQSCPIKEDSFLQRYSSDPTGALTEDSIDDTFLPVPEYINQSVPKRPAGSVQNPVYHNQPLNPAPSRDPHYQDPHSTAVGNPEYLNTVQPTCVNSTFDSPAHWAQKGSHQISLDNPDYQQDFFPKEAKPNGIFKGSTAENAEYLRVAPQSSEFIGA
# Experimental: (§1) Proliferation Experiment of Ba/F3 Cell Line
# (§2) (I) Reagents and Materials
# (§3) • Fetal bovine serum FBS (GBICO, Cat #10099-141); • CellTiter-Glo® luminescent cell viability assay kit (Promega, Cat #G7572); • Black transparent flat-bottom 96 well plate (Corning®, Cat #3603). (II) Instruments • SpectraMax multi-label microplate reader MD, 2104-0010A; • Carbon dioxide incubator, Thermo Scientific 3100 series; • Biological safety cabinet, Thermo Scientific, 1300 series model A2; • Inverted microscope, Olympus, CKX41SF; • Siemens refrigerator KK25E76TI. (III) Cell Lines and Culture Conditions
# (§4) (IV) Experimental Procedures 1. Cell Culture and Inoculation: • (1) Cells in the logarithmic growth phase were harvested and counted using a […]. Cell viability was detected by Trypan Blue Dye Exclusion Method to ensure cell viability above 90%. • (2) The cell concentration was adjusted to reach a desired final density; 90 μL of cell suspension was added to the 96-well plate. • (3) The cells were incubated overnight in the 96-well plate at 37° C., 5% CO2 and at 95% humidity.
# (§5) 2. T0 Reference Data: • (1) 10 μL PBS was added to each well of the TO plate containing the cells. • (2) The CTG reagent was thawed and the cell plate was equilibrated to room temperature for 30 min. • (3) An equal volume of CTG solution was added to each well. • (4) The cells were lysed by shaking on an orbital shaker for 5 min. • (5) The cell plate was left at room temperature for 20 min to stabilize the luminescence signal. • (6) The fluorescence signal values of TO were read. 3. Dilution and Addition of Compounds • (1) According to the compound information table, a corresponding volume of DMSO was added to the corresponding compound powder to prepare a 10 mM stock solution. • (2) A 1000-fold, 3.16-fold-diluted compound solution was prepared. • (3) The 1000× diluted compound solution was diluted 100-fold with PBS to prepare a 10-fold compound solution with a maximum concentration of […], including 9 concentrations, with 3.16-fold dilution, and 10 μL of the medicament solution was added to each well of the 96-well plate to seed the cells. Triplicate wells were set for each compound concentration, with a final concentration of DMSO being 0.1%. • (4) The cells were placed in the 96-well plate filled with the medicament at 37° C., 5% CO2 and at 95% humidity, and cultured for 72 hrs before CTG analysis. 4. Fluorescence Signal Reading • (1) The CTG reagent was thawed and the cell plate was equilibrated to room temperature for 30 min. • (2) An equal volume of CTG solution was added to each well. • (3) The cells were lysed by shaking on an orbital shaker for 5 min. • (4) The cell plate was left at room temperature for 20 min to stabilize the fluorescence signal. • (5) The fluorescence values were read. 5. Data Processing
# (§6) Data were analyzed using GraphPad Prism 7.0 software and fitted data were regressed using non-linear S-curves to obtain dose-response curves from which IC50 values (in nM) were calculated.
# [2] = molecular target: Ba/F3 EGFR-D770-N771ins_SVD (Homo sapiens, UniProt P00533, DUP768-770, cells depend on it); test: Proliferation experiment of Ba/F3 cell line, EGFR-D770-N771ins_SVD (CellTiter-Glo); details: cultured for 72 hrs with compound, CTG analysis, read-out: Ba/F3 EGFR-D770-N771ins_SVD IC50
# Sequence of Ba/F3 EGFR-D770-N771ins_SVD (P00533 with tags, fused parts or gaps DUP768-770): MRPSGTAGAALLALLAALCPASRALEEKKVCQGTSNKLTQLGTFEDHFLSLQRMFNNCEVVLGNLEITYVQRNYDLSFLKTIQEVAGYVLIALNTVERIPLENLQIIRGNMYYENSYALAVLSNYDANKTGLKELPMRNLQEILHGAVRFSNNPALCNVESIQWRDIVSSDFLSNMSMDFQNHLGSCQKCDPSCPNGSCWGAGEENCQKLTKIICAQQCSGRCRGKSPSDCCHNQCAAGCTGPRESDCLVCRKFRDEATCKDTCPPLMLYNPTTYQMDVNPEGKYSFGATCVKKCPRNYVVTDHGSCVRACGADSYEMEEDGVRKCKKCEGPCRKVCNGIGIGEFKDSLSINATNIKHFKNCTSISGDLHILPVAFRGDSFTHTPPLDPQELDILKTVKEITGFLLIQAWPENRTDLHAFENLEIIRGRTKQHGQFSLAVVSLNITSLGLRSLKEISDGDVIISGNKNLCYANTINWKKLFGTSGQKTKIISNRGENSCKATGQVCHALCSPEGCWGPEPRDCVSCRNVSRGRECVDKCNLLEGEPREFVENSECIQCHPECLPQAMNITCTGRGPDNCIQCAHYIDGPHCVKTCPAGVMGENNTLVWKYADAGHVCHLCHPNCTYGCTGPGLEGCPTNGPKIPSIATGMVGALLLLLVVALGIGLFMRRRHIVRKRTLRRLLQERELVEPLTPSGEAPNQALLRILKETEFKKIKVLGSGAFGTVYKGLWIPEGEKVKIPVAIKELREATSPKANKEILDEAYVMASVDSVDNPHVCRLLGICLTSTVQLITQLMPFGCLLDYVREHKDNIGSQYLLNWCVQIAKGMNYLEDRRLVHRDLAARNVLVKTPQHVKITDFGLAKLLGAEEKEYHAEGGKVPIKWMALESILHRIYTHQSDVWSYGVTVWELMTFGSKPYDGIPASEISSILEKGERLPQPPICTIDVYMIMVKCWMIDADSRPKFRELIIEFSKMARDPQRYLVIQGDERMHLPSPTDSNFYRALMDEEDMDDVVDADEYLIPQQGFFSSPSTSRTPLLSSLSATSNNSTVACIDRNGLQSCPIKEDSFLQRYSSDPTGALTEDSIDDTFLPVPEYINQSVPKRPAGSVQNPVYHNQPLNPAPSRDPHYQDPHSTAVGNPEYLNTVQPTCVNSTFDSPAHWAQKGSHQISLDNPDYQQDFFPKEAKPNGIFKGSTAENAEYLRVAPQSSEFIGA
# Experimental: as §1, §2, §3, §4, §5, §6
# A431 (EGFR-WT) = test: Proliferation experiment, A431 cell line (CellTiter-Glo); details: Homo sapiens, A-431; A431 cells, cultured for 72 hrs with compound, CTG analysis
# Experimental: [The procedure below names another cell line; the source lists this cell line under the same test.] as §1, §2, §3, §4, §5, §6
SMILES,GI50 [1] [nM],GI50 [2] [nM],IC50 (A431 (EGFR-WT)) [nM]
"C=CC(=O)Nc1cc2c(Nc3cccc(-c4c(F)cccc4F)c3)ncnc2cc1OCCCN1CC[C@H](N(C)C)C1 [Example 35, (S)-N-(4-((2′,6′-difluoro-[1,1′-biphenyl]-3-yl)amino)-7-(3-(3-(dimethylamino)pyrrolidin-1-yl)propoxy)quinazolin-6-yl)acrylamide]",35.6,26.8,193
"C=CC(=O)Nc1cc2c(Nc3cccc(-c4c(F)cccc4F)c3)ncnc2cc1OCCCN1CC[C@@H](N(C)C)C1 [Example 34, (R)-N-(4-((2′,6′-difluoro-[1,1′-biphenyl]-3-yl)amino)-7-(3-(3-(dimethylamino)pyrrolidin-1-yl)propoxy)quinazolin-6-yl)acrylamide]",33.1,21.5,260
"C=CC(=O)Nc1cc2c(Nc3cccc(-c4ccc(F)cc4F)c3)ncnc2cc1OCCN1CCC(F)(F)CC1 [Example 21, N-(4-((2′,4′-difluoro-[1,1′-biphenyl]-3-yl)amino)-7-(2-(4,4-difluoropiperidin-1-yl)ethoxy)quinazolin-6-yl)acrylamide]",240,104,966
"C=CC(=O)Nc1cc2c(Nc3ccc(F)c(-c4c(F)cccc4F)c3)ncnc2cc1OCCCN1CCN(C)CC1 [Example 40, N-(7-(3-(4-methylpiperazin-1-yl)propoxy)-4-((2′,6,6′-trifluoro-[1,1′-biphenyl]-3-yl)amino)quinazolin-6-yl)acrylamide]",25.4,15,372
"C=CC(=O)Nc1cc2c(Nc3cccc(-n4cccn4)c3)ncnc2cc1OCCCN1CCN(C)CC1 [Example 53, N-(4-((3-(1H-pyrazol-1-yl)phenyl)amino)-7-(3-(4-methylpiperazin-1-yl)propoxy)quinazolin-6-yl)acrylamide]",22.3,11.4,341
"C=CC(=O)Nc1cc2c(Nc3cccc(-c4ccc(F)cc4F)c3)ncnc2cc1OCCCN1CCC(F)(F)CC1 [Example 14, N-(4-((2′,4′-difluoro-[1,1′-biphenyl]-3-yl)amino)-7-(3-(4,4-difluoropiperidin-1-yl)propoxy)quinazolin-6-yl)acrylamide]",221,34.4,365
"C=CC(=O)Nc1cc2c(Nc3cccc(-n4cccn4)c3)ncnc2cc1OCCN1CCOCC1 [Example 51, N-(4-((3-(1H-pyrazol-1-yl)phenyl)amino)-7-(2-morpholinoethoxy)quinazolin-6-yl)acrylamide]",89.9,40.6,–
"C=CC(=O)Nc1cc2c(Nc3cccc(-n4nccn4)c3)ncnc2cc1OCCN1CCOCC1 [Example 54, N-(4-((3-(2H-1,2,3-triazol-2-yl)phenyl)amino)-7-(2-morpholinoethoxy)quinazolin-6-yl)acrylamide]",107,67.9,–
"C=CC(=O)Nc1cc2c(Nc3cccc(-n4cccn4)c3)ncnc2cc1OCCCN1CCOCC1 [Example 52, N-(4-((3-(1H-pyrazol-1-yl)phenyl)amino)-7-(3-morpholinopropoxy)quinazolin-6-yl)acrylamide]",17.9,10.4,–
"C=CC(=O)Nc1cc2c(Nc3cccc(-n4nccn4)c3)ncnc2cc1OCCCN1CCOCC1 [Example 55, N-(4-((3-(2H-1,2,3-triazol-2-yl)phenyl)amino)-7-(3-morpholinopropoxy)quinazolin-6-yl)acrylamide]",34.6,15,–
"C=CC(=O)Nc1cc2c(Nc3cccc(-c4ccc(F)cc4F)c3)ncnc2cc1OCCN1CCN(C)CC1 [Example 4, N-(4-((2′,4′-difluoro-[1,1′-biphenyl]-3-yl)amino)-7-(2-(4-methylpiperazin-1-yl)ethoxy)quinazolin-6-yl)acrylamide]",175,52.5,–

# Second part, the compound after the results:
GI50 [1] [nM],GI50 [2] [nM],IC50 (A431 (EGFR-WT)) [nM],SMILES
32.7,12.7,655,"C=C(F)C(=O)Nc1cc2c(Nc3ccnc(-c4ccccc4F)c3)ncnc2cc1OCC1CC1 [Example 91, N-(7-(cyclopropylmethoxy)-4-((2-(2-fluorophenyl)pyridin-4-yl)amino)quinazolin-6-yl)-2-fluoroacrylamide]"
68.6,32.3,235,"C=CC(=O)Nc1cc2c(Nc3cccc(-c4c(F)cccc4F)c3)ncnc2cc1OCCCN1CC(N(C)C)C1 [Example 36, N-(4-((2′,6′-difluoro-[1,1′-biphenyl]-3-yl)amino)-7-(3-(3-(dimethylamino)azetidin-1-yl)propoxy)quinazolin-6-yl)acrylamide]"
6.3,2,1530,"C=CC(=O)Nc1cc2c(Nc3ccnc(-c4ccccc4F)c3)ncnc2cc1N1CCC(N2CCOCC2)CC1 [Example 98, N-(4-((2-(2-fluorophenyl)pyridin-4-yl)amino)-7-(4-morpholinopiperidin-1-yl)quinazolin-6-yl)acrylamide]"
2.6,1.7,624,"C=CC(=O)Nc1cc2c(Nc3ccnc(-c4ccccc4F)c3)ncnc2cc1OC [Example 82, N-(4-((2-(2-fluorophenyl)pyridin-4-yl)amino)-7-methoxyquinazolin-6-yl)acrylamide]"
15.8,11.9,120,"C=CC(=O)Nc1cc2c(Nc3cccc(-c4ccccc4F)c3)ncnc2cc1OCCCN1CCN(C)CC1 [Example 46, N-(4-((2′-fluoro-[1,1′-biphenyl]-3-yl)amino)-7-(3-(4-methylpiperazin-1-yl)propoxy)quinazolin-6-yl)acrylamide]"
1.9,1.4,2330,"C=CC(=O)Nc1cc2c(Nc3ccnc(-c4ccccc4F)c3)ncnc2cc1N1CCOCC1 [Example 94, N-(4-((2-(2-fluorophenyl)pyridin-4-yl)amino)-7-morpholinoquinazolin-6-yl)acrylamide]"
2.4,1.6,20.5,"C=CC(=O)Nc1cc2c(Nc3ccnc(-c4ccccc4F)c3)ncnc2cc1OCCCN1CCN(CCOC)CC1 [Example 123, N-(4-((2-(2-fluorophenyl)pyridin-4-yl)amino)-7-(3-(4-(2-methoxyethyl)piperazin-1-yl)propoxy)quinazolin-6-yl)acrylamide]"
35.8,11.9,461,"C=C(F)C(=O)Nc1cc2c(Nc3ccnc(-c4ccccc4F)c3)ncnc2cc1OC1CC1 [Example 90, N-(7-cyclopropoxy-4-((2-(2-fluorophenyl)pyridin-4-yl)amino)quinazolin-6-yl)-2-fluoroacrylamide]"
6.8,3.8,63.9,"C=CC(=O)Nc1cc2c(Nc3ccnc(-c4ccccc4F)c3)ncnc2cc1OCCCN1CCN(CCO)CC1 [Example 122, N-(4-((2-(2-fluorophenyl)pyridin-4-yl)amino)-7-(3-(4-(2-hydroxyethyl)piperazin-1-yl)propoxy)quinazolin-6-yl)acrylamide]"
11.2,4.2,226,"C=CC(=O)Nc1cc2c(Nc3cncc(-c4ccccc4F)c3)ncnc2cc1OCCCN1CCN(C)CC1 [Example 59, N-(4-((5-(2-fluorophenyl)pyridin-3-yl)amino)-7-(3-(4-methylpiperazin-1-yl)propoxy)quinazolin-6-yl)acrylamide]"
29.3,13.9,83,"C=CC(=O)Nc1cc2c(Nc3cccc(-c4ncccc4F)c3)ncnc2cc1OCCCN1CCN(C)CC1 [Example 44, N-(4-((3-(3-fluoropyridin-2-yl)phenyl)amino)-7-(3-(4-methylpiperazin-1-yl)propoxy)quinazolin-6-yl)acrylamide]"
